Results published in patent US9486434B2, “Method for delivery and use of isothiocyanates for prophylaxis and/or therapy of bladder cancer” (Health Research Inc., priority 2010, dated 2016).
Where two headings read alike, the source gives them in different places.

How the values were obtained:
UM-UC-3 cells = assay: Wright-Giemsa staining for mitotic figures, UM-UC-3 cells; type: cell-based, human; settings: 24 h, compared with G2/M by flow cytometry
Experimental: FIG. 4. Effect of AITC on mitosis, tubulin expression and apoptosis in human bladder cancer UM-UC-3 cells. Cells were treated with vehicle or AITC for 24 h (each numerical value is mean±SD). A. Flow cytometry analysis for cell cycle arrest. B. Wright-Giemsa staining for counting mitotic figures. Arrows point to cells in mitosis or mitotic catastrophe. C. Immunofluorescent staining of microtubules (green color) and DNA staining with DAPI (blue color). D. Western blotting of tubulins (GAPDH as a loading control). E. Loss of mitochondrial transmembrane potential (Δψm) measured by flow cytometry. F. Western blotting of caspase-9 and caspase-3 (GAPDH as a loading control). G. Apoptotic cells (TUNEL cells) measured by flow cytometry. Cells in F and G were co-treated with or without 20 microM Z-LEHD-FMK (a caspase-9 inhibitor).

[1] = Storage stability at room temperature; type: physicochemical; settings: data not shown
[2] = Dissociation of NAC-AITC in phosphate buffer (HPLC); type: physicochemical; settings: pH 7.4, 37° C.
Experimental: FIG. 11. Dissociation of NAC-AITC. NAC-AITC at 100 μM was freshly prepared in 20 mM sodium phosphate buffer (pH 7.4) containing 1% DMSO and incubated at 37° C. for 0, 0.5, 1, 2, 3, 4, 5 and 24 h. At each time point, an aliquot of the solution was analyzed for remaining NAC-AITC by HPLC. Each value is a mean±SD (n=3).
Measurement of dissociation of NAC-AITC. The assay was based on a known protocol. Briefly, a solution of NAC-AITC was prepared as rapidly as possible by dilution of 0.2 ml of 5 mM NAC-AITC freshly prepared in 20 mM sodium phosphate buffer (pH 7.4): DMSO (1:1) with 20 mM sodium phosphate buffer (pH 7.4) to 10 ml, resulting in a 0.1 mM NAC-AITC solution in 1% DMSO. An aliquot (0.05 ml) was immediately analyzed by HPLC; the remainder of the solution was incubated at 37° C. on a shaker, and an aliquot (0.05 ml) was analyzed by HPLC at different time points up to 24 h. The HPLC condition was the same as used in the urine analysis described above. A plot of the conjugate peak area remaining versus time was generated to determine the half-time of decomposition.

24-h urinary recovery = type: in vivo; settings: female, F344, rat, urine, po, 300 μmol/kg, single oral dose 300 μmol/kg
Experimental: Measurement of pharmacokinetic profiles of AITC and NAC-AITC. The experiment was carried out in female F344 rats since these animals were used in the rat bladder cancer model described above. Groups of three to five rats (8-9 weeks of age) were given a single oral dose of AITC, NAC-AITC or vehicles. AITC was administered in 0.5 ml of soy oil per rat, whereas NACAITC was dissolved in DMSO and diluted with water and administered in 0.2 ml volume (5% DMSO) per rat. The rats were immediately transferred to metabolism cages (one rat per cage), with free access to food and water, for urine collection over four consecutive periods of 0-1.5, 1.5-3, 3-6 and 6-24 h. […]
AITC and NAC-AITC contents in the plasma and urine were determined using the high-performance liquid chromatography (HPLC)-based cyclocondensation assay, and are expressed as AITC equivalent or NAC-AITC equivalent. […]
To specifically measure urinary levels of NAC-AITC, groups of five rats were dosed orally with either AITC or NAC-AITC at 300 μmol/kg and immediately moved to metabolism cages (one rat per cage) for 24 h urine collection. […] The compounds were monitored at both 230 nm (AITC) and 254 nm (its metabolites). […] The fraction corresponding to NAC-AITC was collected and quantified by the cyclocondensation assay; its identity was confirmed by infusion electrospray ionization mass spectrometry.

Row | SMILES | arrest in mitosis (UM-UC-3 cells) | stability when kept dry [1] | half-time of dissociation [2] | dose excreted (24-h urinary recovery; HPLC fraction, read-out: 24-h urinary recovery, Recovered as NAC-AITC, % of adminstered dose) | dose excreted (24-h urinary recovery; read-out: 24-h urinary recovery, Recovered as NAC-AITC, % of total recovery)
1 | C=CCN=C=S [AITC, allyl isothiocyanate] | arrested cells almost exclusively in mitosis |  |  |  | 
2 | C=CCNC(=S)SC[C@H](NC(C)=O)C(=O)O [NAC-AITC, N-acetyl-S—(N-allylthiocarbamoyl)cysteine] |  | at least 16 months | ~12 h | 47.3 ± 1.8% | 83.3%
